Non-standard residues stand in square brackets, D forms with d. Residues, ends and D or L forms follow the SMILES beside them. *: point of attachment. Phe(4-NO2) = N[C@@H](Cc1ccc([N+](=O)[O-])cc1)C(=O)O; Tyr(3,5-I2) = N[C@@H](Cc1cc(I)c(O)c(I)c1)C(=O)O; Phe(4-Cl) = N[C@@H](Cc1ccc(Cl)cc1)C(=O)O; 1Nal = N[C@@H](Cc1cccc2ccccc12)C(=O)O; 2Nal = N[C@@H](Cc1ccc2ccccc2c1)C(=O)O; Cha = N[C@@H](CC1CCCCC1)C(=O)O; Phg = N[C@H](C(=O)O)c1ccccc1; Nva = CCC[C@H](N)C(=O)O; Cbz = O=C(OCc1ccccc1)*; Bn = c1ccc(C*)cc1
Legend:
[1] = target: T1, chymotrypsin-like activity of the proteasome (UniProt Q32KL2); conditions: slow binding inhibitors; Vinitsky et al., Biochemistry 31:9421-9428 (1992); cited from earlier work
T1 sequence (Q32KL2 1-263): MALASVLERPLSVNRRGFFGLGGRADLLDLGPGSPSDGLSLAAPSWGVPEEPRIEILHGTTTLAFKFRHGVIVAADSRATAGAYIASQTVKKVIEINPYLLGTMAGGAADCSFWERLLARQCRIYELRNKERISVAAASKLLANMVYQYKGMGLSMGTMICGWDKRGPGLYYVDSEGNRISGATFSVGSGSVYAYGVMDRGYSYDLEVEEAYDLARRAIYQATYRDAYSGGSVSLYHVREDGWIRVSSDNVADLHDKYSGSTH

20S proteasome [2] = target: T2, 20S proteasome (Oryctolagus cuniculus, UniProt G1T4Q9); test: Inhibition of the 20S proteasome (kinetic experiments, Ki); type: biochemical, Rabbit; conditions: Table V, miscellaneous tripeptide aldehydes; 20S proteasome
T2 sequence (G1T4Q9 60-263): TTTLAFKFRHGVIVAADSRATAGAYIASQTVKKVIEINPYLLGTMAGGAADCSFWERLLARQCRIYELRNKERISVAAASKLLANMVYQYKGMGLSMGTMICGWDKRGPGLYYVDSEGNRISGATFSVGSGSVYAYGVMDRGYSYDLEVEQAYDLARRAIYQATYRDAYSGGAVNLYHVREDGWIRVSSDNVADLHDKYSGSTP
Source text: (§1) Tables I-III summarize results from kinetic experiments that measured the inhibition of the 20S and 26S proteasomes, as well as cathepsin B and calpain. In these tables, Ki values are reported, which are dissociation constants for the equilibrium that is established when enzyme and inhibitor interact to form the enzyme:inhibitor complex.
(§2) The substances and assay conditions are briefly summarized in the footnotes to Table I. MG 101 and MG 102, also known as Calpain Inhibitor I and II, were purchased from Calbiochem as catalogue products.
(§3) Table V summarizes data for the inhibition of the 20S proteasome by various tripeptide aldehyde inhibitors.

cathepsin B = target: T3, cathepsin B (Bos taurus, UniProt P07688); test: Inhibition of cathepsin B (Ki); type: biochemical; conditions: Bovine spleen; substrate Z-RR-AMC; [DTT] = 2 mM, [EDTA] = 5 mM, pH 5.5, 37° C.; read-out: Ki Cat B
T3 construct: Bovine spleen; Substrate: Z-RR-AMC; from tissue; host or cells: bovine spleen
Source text: as §1

20S Proteasome [3] = target: T4, 20S Proteasome (Oryctolagus cuniculus, UniProt G1T4Q9); test: Inhibition of the 20S proteasome (kinetic experiments, Ki); type: biochemical, Rabbit; set-up: Ki 20 S; substrate Suc-LLVY-AMC; conditions: Rabbit muscle, SDS-activated; substrate Suc-LLVY-AMC
T4 sequence (G1T4Q9 1-263): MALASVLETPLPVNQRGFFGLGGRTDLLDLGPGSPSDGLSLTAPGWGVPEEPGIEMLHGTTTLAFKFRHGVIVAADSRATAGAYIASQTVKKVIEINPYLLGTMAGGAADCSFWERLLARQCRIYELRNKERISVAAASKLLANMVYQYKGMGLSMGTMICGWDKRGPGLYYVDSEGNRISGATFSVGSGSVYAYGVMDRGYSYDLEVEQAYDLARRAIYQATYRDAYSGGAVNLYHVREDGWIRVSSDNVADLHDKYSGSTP
Source text: as §1, §2, §3

26S proteasome = target: T5, 26S proteasome (Oryctolagus cuniculus, UniProt G1T4Q9); test: Inhibition of the 26S proteasome (kinetic experiments, Ki); type: biochemical; conditions: Rabbit muscle; substrate Suc-LLVY-AMC; [Mg:ATP] = 2 mM
T5 sequence (G1T4Q9 1-263): T4 sequence (G1T4Q9 1-263)
Source text: as §1, §2

[4] = target: calpain, 80 kD catalytic subunit; test: Inhibition of calpain (Ki); type: biochemical; conditions: Rabbit muscle, substrate Suc-LLVY-AMC, [CaCl2] = 1 mM, [DTT] = 2 mM, pH 7.8, 20° C.
Source text: as §1

CSCC[C@@H](C=O)NC(=O)[C@H](CC(C)C)NC(=O)[C@H](CC(C)C)NC(C)=O [Ac-LLM-H, N-acetyl-Leu-Leu-methioninal] (Ac-Leu-Leu-Met-aldehyde)
Ki [1]: 33000 nM

COc1ccc(C[C@@H](C=O)NC(=O)[C@H](CC(C)C)NC(=O)[C@H](CC(C)C)NC(=O)OCc2ccccc2)cc1 [MG 152] (Cbz-Leu-Leu-Tyr(Me)-aldehyde)
Ki (20S proteasome [2]): 6 nM

CSCC[C@@H](C=O)NC(=O)[C@H](CC(C)C)NC(=O)[C@H](CC(C)C)NC(C)=O [MG 102, reference compound] (Ac-Leu-Leu-Met-aldehyde)
Ki (cathepsin B): 94 nM
Ki (20S Proteasome [3]): 1000 nM
Ki (26S proteasome): 28000 nM
Ki [4]: 120 nM

CC(C)C[C@H](NC(=O)OCc1ccccc1)C(=O)N[C@@H](CC(C)C)C(=O)N[C@H](C=O)Cc1cc(I)c(O)c(I)c1 [MG 161] (Cbz-Leu-Leu-[Tyr(3,5-I2)]-aldehyde)
Ki (20S proteasome [2]): 64 nM

CC(C)C[C@H](NC(=O)OCc1ccccc1)C(=O)N[C@@H](CC(C)C)C(=O)N[C@H](C=O)Cc1ccc2ccccc2c1 [MG 121, Z-Leu-Leu-Nal-H] (Cbz-Leu-Leu-[2Nal]-aldehyde)
Ki (cathepsin B): 73 nM
Ki (20S Proteasome [3]): 25 nM
Ki (26S proteasome): 70 nM
Ki [4]: 62 nM

CC(C)C[C@H](NC(=O)OCc1ccccc1)C(=O)N[C@@H](CC(C)C)C(=O)N[C@H](C=O)c1ccccc1 [MG 133] (Cbz-Leu-Leu-[Phg]-aldehyde)
Ki (20S proteasome [2]): 470 nM

CCCC[C@@H](C=O)NC(=O)[C@H](CC(C)C)NC(=O)OCc1ccccc1 [MG 105, Z-Leu-Nle-H, reference compound]
Ki (20S Proteasome [3]): 15000 nM

CCC[C@@H](C=O)NC(=O)[C@H](CC(C)C)NC(=O)[C@H](CC1CCCCC1)NC(=O)OCc1ccccc1 [MG 141] (Cbz-[Cha]-Leu-[Nva]-aldehyde)
Ki (20S proteasome [2]): 50 nM

CC(=O)N[C@@H](CC(C)C)C(=O)N[C@@H](CC(C)C)C(=O)N[C@H](C=O)CC(C)C [MG 154] (Ac-Leu-Leu-Leu-aldehyde)
Ki (20S proteasome [2]): 75 nM

CC(C)C[C@H](NC(=O)OCc1ccccc1)C(=O)N[C@@H](CC(C)C)C(=O)N[C@H](C=O)Cc1ccc(Cl)cc1 [MG 158] (Cbz-Leu-Leu-[Phe(4-Cl)]-aldehyde)
Ki (20S proteasome [2]): 7 nM

CC(C)C[C@@H](C=O)NC(=O)[C@H](CC(C)C)NC(=O)[C@H](Cc1cccc2ccccc12)NC(=O)OCc1ccccc1 [MG 150] (Cbz-[1Nal]-Leu-Leu-aldehyde)
Ki (20S proteasome [2]): 0.4 nM

CC(C)C[C@H](NC(=O)OCc1ccccc1)C(=O)N[C@@H](CC(C)C)C(=O)N[C@@H](C)C=O [MG 111] (Cbz-Leu-Leu-Ala-aldehyde)
Ki (cathepsin B): 6 nM
Ki (20S Proteasome [3]): 210 nM
Ki (26S proteasome): 690 nM
Ki [4]: 11 nM

CC(C)C[C@@H](C=O)NC(=O)[C@H](Cc1cccc2ccccc12)NC(=O)[C@H](Cc1cccc2ccccc12)NC(=O)OCc1ccccc1 [MG 166] (Cbz-[1Nal]-[1Nal]-Leu-aldehyde)
Ki (20S proteasome [2]): 0.035 nM

CC(C)C[C@H](NC(=O)OCc1ccccc1)C(=O)N[C@@H](CC(C)C)C(=O)N[C@H](C=O)Cc1c[nH]c2ccccc12 [MG 151] (Cbz-Leu-Leu-Trp-aldehyde)
Ki (20S proteasome [2]): 10 nM

CC(C)C[C@H](NC(=O)OCc1ccccc1)C(=O)N[C@@H](CC(C)C)C(=O)N[C@H](C=O)Cc1ccc(OCc2ccccc2)cc1 [MG 153] (Cbz-Leu-Leu-Tyr(Bn)-aldehyde)
Ki (20S proteasome [2]): 280 nM

CC(C)C[C@H](NC(=O)OCc1ccccc1)C(=O)N[C@@H](CC(C)C)C(=O)NCC=O [MG 118] (Cbz-Leu-Leu-Gly-aldehyde)
Ki (cathepsin B): 94 nM
Ki (20S Proteasome [3]): 3800 nM
Ki (26S proteasome): 28000 nM
Ki [4]: 120 nM

CC(C)C[C@@H](C=O)NC(=O)[C@H](CC(C)C)NC(=O)[C@H](Cc1ccc2ccccc2c1)NC(=O)OCc1ccccc1 [MG 165] (Cbz-[2Nal]-Leu-Leu-aldehyde)
Ki (20S proteasome [2]): 0.24 nM

CC(C)C[C@H](NC(=O)OCc1ccccc1)C(=O)N[C@@H](CC(C)C)C(=O)N[C@H](C=O)Cc1ccc([N+](=O)[O-])cc1 [MG 135] (Cbz-Leu-Leu-[Phe(4-NO2)]-aldehyde)
Ki (20S proteasome [2]): 290 nM
